# Patent US7968323B2, “Bacterial ghost (BG) production process using betapropiolactone (BPL) for final inactivation” (priority 2008, dated 2011)
# Assays:
# [1] = tested on: E. coli NM522 (pBBR1MCS5); assay: BPL treatment of E. coli NM522 (pBBR1MCS5, no E-lysis), small scale, CFU; type: cell-based; conditions: 0.05% BPL, 42° C., 30 min
# Procedure: (§1) 2. Comparison of E. coli NM522 (pBBR1MCS5, no E-lysis) and E. coli BG NM522 (pGlysivb, E-lysis Plasmid) Treated vs. Nontreated with BPL at a Final Concentration of 0.05% BPL at 42° C.
# (§2) Data from E. coli NM522 (pBBR1MCS5) that have been treated with 0.05% BPL at 42° C. (FIG. 4A) are showing that a reduction in viability of ˜5 log is obtained in small scale experiments whereas E. coli BG NM522 (pGlysivb) treated with 0.05% BPL at 42° C. […] Using a concentration of 0.05% BPL under a temperature of 42° C. and 30 min for the reaction is sufficient for E-lysed bacteria to be safely inactivated; no living cell counts are detected.
# [2] = tested on: E. coli BG NM522 (pGlysivb); assay: BPL treatment of E. coli BG NM522 (pGlysivb, E-lysis plasmid), small scale, CFU; type: cell-based; conditions: 0.05% BPL, 42° C., 30 min
# Procedure: as §1, §2
# E. coli NM522 pGlysivb = assay: Temperature study of BPL inactivation rates; type: cell-based; conditions: 0.05% BPL; for reduction of CFU: within 30 min; for time to BPL inactivation: starting CFU approximately 110^3/ml
# Source text: The sterilizing activity of BPL and its self destruction in water is temperature dependant.
# [3] = tested on: E. coli NM522 (backbone plasmid pBBR1MCS5); assay: BPL treatment in 20 l fermenter, control without lysis, CFU; type: cell-based; conditions: 0.05% BPL, 42° C., 30 min
# Source text: (§3) During the production process samples of the culture broth are taken at fixed timepoints (labeled A-M in FIG. 3) to determine optical density, colony forming units (CFU), BG appearance by microscopy as well as for real time PCR analysis of DNA contents. Fermentation parameters like pH, air flow, pO2, stirring and temperature are automatically documented by the fermentation program. Throughout the consistency study all parameters were kept in a narrow window.
# (§4) BPL killing rates as well as DNA concentration of bacterial samples were measured at time points and under fermentation conditions as described for BG production (Example 1, FIG. 3).
# [4] = tested on: E. coli NM522 BG (pGlysivb); assay: BPL treatment in 20 l fermenter, E-lysed BG, CFU; type: cell-based; conditions: 0.05% BPL, 42° C., 30 min
# Procedure: (§5) Gram negative bacteria (e.g E. coli or Shigella flexneri 2a in this study) are transformed with plasmid pGlysivb (encoding lysis gene E, construction as described in FIG. 2) or pGLNIc (encoding both the lysis gene E and the Staphylococcus aureus nuclease gene SNUC; WO 03/006630). Plasmids, pGlysivb and pGLNIc tightly regulate expression of lysis gene E by a temperature upshift from 35° C. to 42-44° C. under the mutated thermosensitive Lambda-promotor (λPRmut) and the expression of SNUC depends on induction from an upstream lac-promotor by addition of IPTG. As a consequence of protein E expression an E-specific tunnel structure between the inner and outer membrane of the bacteria is formed resulting in the expulsion of the cytoplasmic contents, including chromosomal and plasmid DNA, into the culture media under conditions described, at least 99.9% of all bacteria are converted into BG during the E-lysis process. To guarantee nucleic acid free BG a second system is activated in case of pGLNIc making use of the DNA and RNA degrading capabilities of SNUC. […]
# as §4
# [5] = tested on: E. coli NM522 (pGlysivb, pSNUCIQ3); assay: BPL inactivation of E-SNUC BG in 20 l fermenter; type: cell-based; conditions: 42° C., 30 min
# Procedure: as §5, with “SNUC. The nuclease is expressed −30 min before induction of gene E expression during the exponential growth phase of the bacteria and is activated after completion of E-lysis by addition of magnesiumchloride and calciumchloride.” for “SNUC.”
# [6] = tested on: Shigella flexneri 2a (backbone plasmid pBBR1MCS5); assay: Control fermentations inactivated with BPL, CFU; type: cell-based; conditions: 0.05% BPL, 30 min, two control fermentations
# Source text: as §3
# To determine the inactivation effect of BPL to Shigella flexneri 2a bacteria under the same fermentation conditions as for production of BG two control fermentations using Shigella flexneri 2a transformed with the backbone plasmid pBBR1MCS5 (no lysis, no nuclease) were performed. BPL killing rates as well as DNA concentration of bacterial samples was measured at time points and under fermentation conditions described for BG production (Example 1, FIG. 3).
# [7] = cited from earlier work
structure (smiles),measurement,setting,value
"O=C1CCO1 [BPL, betapropiolactone]",reduction in viability,[1],~5 log
same,surviving bacteria after BPL treatment,[2],no surviving bacteria
same,reduction of CFU,E. coli NM522 pGlysivb; 16° C.,less than 0.5 log
same,reduction of CFU,E. coli NM522 pGlysivb; 28° C.,approximately 1.5 log
same,time to BPL inactivation,E. coli NM522 pGlysivb; 36° C.,30 min
same,time to BPL inactivation,E. coli NM522 pGlysivb; 42° C.,15 min
same,reduction in viability,[3],~3 log
same,"inactivation, live CFU at end of BG production process",[4],total inactivation
same,concentration used for total inactivation by BPL,[5],less than 0.025%
same,drop in living cell counts (CFU),[6],4 log
same,solubility in water,[7],highly soluble in water
